Source: patent US20220186210A1, “METHOD FOR I[…]” (priority 2019, published 2022)

What was measured:
[1] = test system: HeLa cells with PSMB5 point mutations; experiment: Pooled ssODN point-mutation validation, Bortezomib resistant colonies (MTT viability); format: cell-based; details: bortezomib 8 ng/ml, 72 hour, FIG. 9D
Procedure: For the validation of critical mutations of PSMB5 and PLK1, sgRNAs were designed near the mutation site, and each 119 nt ssODN donor encoded one amino acid substitution for a validated residue. All sgRNAs (sgRNA sequences for the validation of critical mutations) and ssODN donor sequences (ssODN donors encoded one amino acid substitution for a validated residue) are listed in Table 2 as follows.
HeLa cells were transfected with 1 μg of sgRNA and 2 μg of the ssODN donor in six-well plates. Fourteen days after transfection, 1.5×10^5 cells were seeded in six-well plates 24 hour before drug selection. […] The genomes of drug-resistant cells were extracted using the TIANamp Genomic DNA Kit (TIANGEN).
(§1) Because missense point mutations were the predominant formats conferring drug resistance for both PSMB5 and PLK1, we decided to employ ssODN-mediated method^(24) to create specific point mutations instead of deletions for validation. We selected nine amino acid residues (R78, T80, V90, M104, A108, D110, C111, C122 and G242) in PSMB5, among which D110 and C111 were included as controls. To choose a proper amino acid for point mutation, the mutant types from screening results or previous reports were preferential choices. […] It remains to be determined how V90 mediates drug sensitivity and whether V90 alteration changes the structure around Bortezomib binding pocket.

[2] = test system: HeLa cell clones with PSMB5 point mutations; experiment: Cell viability assay of single clones with PSMB5 point mutations; format: cell-based; details: single clones with PSMB5 R78N, V9OL, A108T, C122F, G242D; FIG. 9E
Procedure: Cells were seeded in 96-well plates 24 hour before drug or toxin treatment (5,000 cells for diphtheria toxin (DT) and 3,000 cells for bortezomib), and different concentrations of bortezomib or DT were added. Cells were incubated at 37° C. for 48 hour (DT) or 72 hour (bortezomib) before the addition of 1 mg/ml of MTT (3-[4,5 -dimethylthiazol-2-yl]-2,5 -diphenyltetrazolium bromide). Spectrophotometer readings at 570 nm were collected using BioTek Cytation5 (BioTek Instruments).
as §1, with “choices. For the rest, we made all the substitution to alanine (Table 2).” for “choices.”

**Q.** With `CC(C)C[C@H](NC(=O)[C@H](Cc1ccccc1)NC(=O)c1cnccn1)B(O)O` [Bortezomib] as the molecule, how does the Bortezomib resistant colonies ([1]; PSMB5 control mutations D110A and C111A) read?
**A.** The Bortezomib resistant colonies was “failed to produce Bortezomib resistant colonies”.

**Q.** And the Bortezomib resistant colonies ([1]; PSMB5 mutations R78N, T80A, V90A, M104A, A108T, C122F, G242D)?
**A.** The Bortezomib resistant colonies was “produced variable number of Bortezomib resistant colonies”.

**Q.** What about the “cell susceptibility to Bortezomib” value [2] of the same molecule?
**A.** The value was “conferred Bortezomib resistance”.
